# Details: 1 g added to 25 mL of water at room temperature (about 25° C., 1 atmosphere)
structure (smiles),measurement,value
[O]=[Zn] [zinc oxide],Water solubility,almost insoluble
